From ChEMBL document CHEMBL1150235, “Parnapimarol and nepetaparnone from Nepeta parnassica” (2008)
Activity calls are given as the source filed them. No cut-off for these calls is given here.

Legend:
Culex pipiens molestus = assay: Insecticidal activity against Culex pipiens molestus larvae at 10 to 50 mg/L after 6 to 24 hrs; type: functional, organism-based
Leptothorax = assay: Insecticidal activity against Leptothorax sp. assessed as number of dead ants at 0.5 mg after 6 to 24 hrs relative to control; type: functional

SMILES	Activity (Culex pipiens molestus)	Activity (Leptothorax)
CC1=C2CC[C@H](C)[C@@]23C(=O)O[C@H]1[C@@]12C(=O)O[C@H]3C(C)=C1CC[C@@H]2C [NEPETANUDONE]	inactive	45%
CC1=C2CC[C@@H](C)[C@@]23C(=O)O[C@H]1[C@@]12C(=O)O[C@H]3C(C)=C1CC[C@@H]2C [NEPETAPARNONE]	inactive	55%
C=C[C@]1(C)CCC2=C(CC[C@H]3[C@](C)(COC(=O)C(C)CC)CC[C@H](O)[C@]23C)[C@@H]1OC(C)=O (stereo partly specified) [PARNAPIMAROL]	inactive	31%
